Assay results as given in US10912814B2, “Combination formulation of three antiviral compounds” (priority 2016, dated 2021).
Like-named read-outs stand apart in the source and are kept apart here. One block for each molecule: values may come before it.

Legend:
[1] = Physical (solid-state) stability, XRPD; assay type: physicochemical; conditions: for tendency to crystallize in the presence of pre-existing crystalline voxilaprevir: spiked SOF/VEL SSD/VOX SSD tablets
Procedure: As described previously, Form VIII of voxilaprevir is characterized by an X-ray powder diffractogram comprising the following peaks (±0.2°): at 7.8, 8.2, and 20.2°2θ, as determined on a diffractometer using Cu-Kα radiation.
Voxilaprevir SSD is hygroscopic, with a reversible weight gain of 11% when cycled between 0% and 90% RH at 25° C.
The impact of voxilaprevir SSD potency on the chemical and physical stability thereof was also evaluated (Table 5). This development study compared the properties of typical voxilaprevir SSD with 50% w/w voxilaprevir/50% w/w copovidone (Lot C) to those of sub-potent voxilaprevir SSD with 40% w/w voxilaprevir/60% w/w copovidone (Lot D) and super-potent voxilaprevir SSD with 60% w/w voxilaprevir/40% w/w copovidone (Lot E). Voxilaprevir SSD was packaged in a designated commercial packaging configuration (i.e., polyethylene bags sealed in aluminum bags with 5% w/w desiccant) and stored for 6 months at both 25° C./60% RH and 40° C./75% RH. […] All samples remained amorphous by XRPD throughout the duration of the study.
The impact of reprocessed voxilaprevir SSD on the chemical and physical stability of voxilaprevir SSD was additionally evaluated. Voxilaprevir was reprocessed (re-dissolved, spray-dried, and secondary dried) twice and packaged in a designated commercial packaging configuration (i.e., polyethylene bags sealed in aluminum bags with 5% w/w desiccant) and stored for 6 months at both 25° C./60% RH and 40° C./75% RH. […] All samples remained amorphous by XRPD throughout the duration of the study.
In some embodiments, the film-coated tablets were packaged in 75 and 100 mL white HDPE bottles (Lots A and B, respectively, as described in Tables 11A, 11B) with 1 g silica gel desiccant canisters and a polyester fiber coil. The 75 and 100 mL HDPE bottles contained fourteen and twenty eight tablets, respectively. […] The packaged tablets (14 and 28 counts) were evaluated for stability at 40° C./75% RH and 25° C./60% RH. Additionally, the 14-count bottles (without cap) were evaluated for stability under open conditions at 40° C./75% RH. […]

[2] = Voxilaprevir Form VI single and multiple oral dose pharmacokinetics in healthy subjects; assay type: in vivo, human; conditions: for Cmax / half-life / Tmax / AUC / AUC(0-inf) / AUC(0-t): human, plasma; for Cmax / AUC / AUC(0-inf) / AUC(0-t): mean
Procedure: Pub. No. 2015/0175625 A1. Initial studies were conducted using the crystalline Form VI of voxilaprevir. As described previously, Form VI of voxilaprevir is characterized by an X-ray powder diffractogram comprising the following peaks (±0.2°): at 14.6, 15.4, and 20.0°2θ, as determined on a diffractometer using Cu-Kα radiation. Following single and multiple oral doses of voxilaprevir, Form VI, maximum plasma concentrations occurred between 2.0 and 5.0 hours (median tmax). […] Steady-state concentrations of voxilaprevir, Form VI were achieved after 7 days of once-daily dosing across all dose levels (Table 2).

[3] = Relative bioavailability study of voxilaprevir amorphous free acid tablets vs Form VI tablets in healthy subjects (fasted, fed); assay type: in vivo, human; conditions: for AUC(0-inf) / Cmax: human, in vivo, oral, 100 mg
From the text: Accordingly, a spray dried dispersion of voxilaprevir in the amorphous free acid form was selected for incorporation into the tablet formulation.

[4] = Tablet dissolution in 50 mM sodium acetate buffer pH 5.0 with 2.0% w/v Polysorbate 80 and 0.001% w/v BHT, 75 rpm, 900 mL, 37° C., USP Type II; assay type: physicochemical; conditions: for dissolution at 30 minutes: after 4 weeks open at 40° C./75% RH
[5] = Photostability (light exposure, ICH Q1B); assay type: physicochemical; conditions: tablets film-coated to weight gains of 2.1 to 5.4%, ICH Q1B
Procedure: In some embodiments, and the Examples presented herein, the tablet formulation includes sofosbuvir having Form 6 and, optionally, a trace amount of Form 7.
Tablet cores and film-coated tablets were evaluated per ICH Q1B guidelines with a total of illumination of more than 1.2 million-lux hours and a total irradiance of more than 200 W·hr/m^2.

BCS classification = assay type: physicochemical
[6] = Tablet dissolution as a function of medium pH and composition (Apparatus II, 75 rpm, 900 mL, 37° C.); assay type: physicochemical; conditions: Formulation G tablets
[7] = Storage stability: appearance, assay/label strength (LS), total impurities/degradation products; assay type: physicochemical; conditions: all conditions
Procedure: In some embodiments, the film-coated tablets were packaged in 75 and 100 mL white HDPE bottles (Lots A and B, respectively, as described in Tables 11A, 11B) with 1 g silica gel desiccant canisters and a polyester fiber coil. The 75 and 100 mL HDPE bottles contained fourteen and twenty eight tablets, respectively. Each HDPE bottle was capped using a white, continuous thread, child-resistant polypropylene screw cap with an […], aluminum-faced line. The packaged tablets (14 and 28 counts) were evaluated for stability at 40° C./75% RH and 25° C./60% RH. Additionally, the 14-count bottles (without cap) were evaluated for stability under open conditions at 40° C./75% RH.
For each of the impact studies, the sofosbuvir/velpatasvir SSD/voxilaprevir SSD tablets were packaged in a designated commercial packaging configuration (28-count, 100 mL HPDE bottle, coil, 1 g desiccant), and stored for 12 weeks at 25° C./60% RH and 40° C./75% RH. Tablets were also packaged in open containers (28-count, 100 mL HPDE bottle without cap) and stored for 4 weeks at 40° C./75% RH and for 1 week at 50° C./92% RH.
The sofosbuvir/velpatasvir SSD/voxilaprevir SSD tablets were packaged in the designated commercial packaging configuration (28-count, 100 mL HPDE bottle, coil, 1 g desiccant), and stored for 6 months at 25° C./60% RH and 40° C./75% RH.

[8] = Tablet dissolution in 50 mM sodium acetate buffer pH 5.0 with 2.0% w/v Polysorbate 80 and 0.001% w/v BHT, 75 rpm, 900 mL, 37° C., USP Type II; assay type: physicochemical; conditions: tablets containing voxilaprevir SSD
Procedure: FIGS. 10-12 depict additional dissolution profiles for the sofosbuvir/velpatasvir SSD/voxilaprevir SSD tablets having the formulation described in Table 13 and which were used in phase 1, 2, and 3 clinical studies, where the dissolution testing was conducted at pH 5.0 acetate buffer containing 2.0% w/v polysorbate 80. Four batches of the sofosbuvir/velpatasvir SSD/voxilaprevir SSD tablets were tested, with Batch A manufactured at 100 kg and Batches B, C and D manufactured at 145 kg. All other aspects of the formulation and manufacturing process were otherwise equivalent. The four batches were packed in the same commercial configuration: 28 count, 100 mL HPDE bottle with 1 g silica gel desiccant canister and a polyester fiber coil. […] Moreover, for Batch A, the amount dissolved at 30 min remained between 98 and 100% for sofosbuvir, between 90 and 92% for velpatasvir SSD, and between 89 and 93% for voxilaprevir SSD. […] For Batch D, the amount dissolved at 30 min remained at 100% for sofosbuvir, between 90 and 91% for velpatasvir SSD, and between 89 and 91% for voxilaprevir SSD. Release of velpatasvir SSD and voxilaprevir SSD from the sofosbuvir/velpatasvir SSD/voxilaprevir SSD tablets associated with all four Batches was complete after 60 minutes.

[9] = 100 mg tablets, healthy subjects
[10] = Amorphous Free Acid 100 mg, healthy subjects, fed (with moderate food)
[11] = single dose 100 mg, healthy subjects, fasted (N = 15)

- physical stability of crystal form ([1]; converted to crystalline Form VIII): physically metastable
- Cmax ([2]; oral, 30 mg, multiple dose 30 mg): 7.3 ng/mL
- half-life ([2]; oral, 30 mg, multiple dose 30 mg, median): 2460 min
- Tmax ([2]; oral, 30 mg, multiple dose 30 mg, median, read-out: tmax): 5 h
- Cmax ([2]; oral, 30 mg, single dose 30 mg): 3.7 ng/mL
- half-life ([2]; oral, 30 mg, single dose 30 mg, median): 562 min
- Tmax ([2]; oral, 30 mg, single dose 30 mg, median, read-out: tmax): 4 h
- Cmax ([2]; oral, 100 mg, multiple dose 100 mg): 46 ng/mL
- half-life ([2]; oral, 100 mg, multiple dose 100 mg, median): 1830 min
- Tmax ([2]; oral, 100 mg, multiple dose 100 mg, median, read-out: tmax): 5 h
- Cmax ([2]; oral, 100 mg, single dose 100 mg): 17.6 ng/mL
- half-life ([2]; oral, 100 mg, single dose 100 mg, median): 2200 min
- Tmax ([2]; oral, 100 mg, single dose 100 mg, median, read-out: tmax): 3 h
- Cmax ([2]; oral, 300 mg, multiple dose 300 mg): 155 ng/mL
- half-life ([2]; oral, 300 mg, multiple dose 300 mg, median): 1660 min
- Tmax ([2]; oral, 300 mg, multiple dose 300 mg, median, read-out: tmax): 5 h
- Cmax ([2]; oral, 300 mg, single dose 300 mg): 34.5 ng/mL
- half-life ([2]; oral, 300 mg, single dose 300 mg, median): 2130 min
- Tmax ([2]; oral, 300 mg, single dose 300 mg, median, read-out: tmax): 2 h
- AUC ([2]; oral, multiple dose 30 mg): 74.2 ng·h/mL
- AUC ([2]; oral, multiple dose 100 mg): 364 ng·h/mL
- AUC ([2]; oral, multiple dose 300 mg): 1030 ng·h/mL
- AUC(0-inf) ([2]; oral, single dose 30 mg): 56.9 ng·h/mL
- AUC(0-t) ([2]; oral, single dose 30 mg): 33 ng·h/mL
- AUC(0-inf) ([2]; oral, single dose 100 mg): 245 ng·h/mL
- AUC(0-t) ([2]; oral, single dose 100 mg): 188 ng·h/mL
- AUC(0-inf) ([2]; oral, single dose 300 mg): 485 ng·h/mL
- AUC(0-t) ([2]; oral, single dose 300 mg): 425 ng·h/mL
- Tmax ([2]; po, single and multiple oral doses, read-out: time of maximum plasma concentrations (median tmax)): 2 to 5 h
- dose linearity of pharmacokinetics ([2]; single and multiple dosing, 30 to 300 mg, healthy subjects): dose-linear pharmacokinetics
SMILES: CC[C@@H]1[C@@H]2CN(C(=O)[C@H](C(C)(C)C)NC(=O)O[C@@H]3C[C@H]3CCCCC(F)(F)c3nc4ccc(OC)cc4nc3O2)[C@@H]1C(=O)N[C@]1(C(=O)NS(=O)(=O)C2(C)CC2)C[C@H]1C(F)F [voxilaprevir, Form VI]

- higher Cmax compared to tablets (2×50 mg) comprising voxilaprevir, Form VI [3, 9]: ~43%
- higher exposure (AUC) compared to tablets (2×50 mg) comprising voxilaprevir, Form VI [3, 9]: approximately 9%
- AUC(0-inf) ([3]; Amorphous Free Acid 100 mg, healthy subjects, fasted (N = 15)): 367 ng·h/mL
- AUC(0-inf) [3, 10]: 494 ng·h/mL
- Cmax [3, 10]: 44.2 ng/mL
- AUC(0-inf) [3, 11]: 367 ng·h/mL
- Cmax [3, 11]: 32.7 ng/mL
- Cmax Geometric Least Square Ratio, Amorphous Free Acid/Form VI GMR ([3]; single dose, fasted): 1.43
- tendency to crystallize in the presence of pre-existing crystalline voxilaprevir [1]: no tendency to crystallize
SMILES: CC[C@@H]1[C@@H]2CN(C(=O)[C@H](C(C)(C)C)NC(=O)O[C@@H]3C[C@H]3CCCCC(F)(F)c3nc4ccc(OC)cc4nc3O2)[C@@H]1C(=O)N[C@]1(C(=O)NS(=O)(=O)C2(C)CC2)C[C@H]1C(F)F [Amorphous Free Acid]

- tendency to crystallize in the presence of pre-existing crystalline voxilaprevir [1]: no tendency to crystallize
SMILES: COC[C@H]1C[C@@H](c2ncc(-c3ccc4c(c3)COc3cc5c(ccc6nc([C@@H]7CC[C@H](C)N7C(=O)[C@@H](NC(=O)OC)C(C)C)[nH]c65)cc3-4)[nH]2)N(C(=O)[C@H](NC(=O)OC)c2ccccc2)C1 [amorphous velpatasvir free base]

- dissolution at 30 minutes ([4]; SSD potency tablets Lot A): 85%
- dissolution at 30 minutes ([4]; SSD potency tablets Lot B): 91%
- dissolution at 30 minutes ([4]; SSD potency tablets Lots C and D): 92%
- released at 30 minutes ([4]; spiked tablets containing 5% w/w voxilaprevir Form VIII or Form X): 84%
- released at 30 minutes ([4]; spiked tablets containing 10% w/w voxilaprevir Form VIII or Form X): 80%
- released at 30 minutes ([4]; spiked tablets containing 20% w/w voxilaprevir Form VIII or Form X): 73%
- released at 30 minutes ([4]; tablets containing 0% w/w crystalline voxilaprevir): 91%
- released at 30 minutes ([4]; tablets containing neat amorphous voxilaprevir free acid (physical mixture with copovidone)): 76%
- level of degradation products [5]: 0.0%
- aqueous solubility, pH dependence (BCS classification): pH-dependent solubility
- dissolution at 60 minutes in pH 4.0 and 5.0 containing 2.0% w/v polysorbate 80 [6]: complete dissolution
- dissolution in pH 2.0, 4.5 and 6.8 buffers, FaSSIF and FeSSIF [6]: Incomplete dissolution
- total impurities/degradation products ([7]; desiccant/packaging study tablets, 6 months): 0.0%
- total impurities/degradation products ([7]; tablet Lots A-D from sub-potent/super-potent VEL SSD and VOX SSD): 0.7%
- total impurities/degradation products ([7]; tablets from VEL SSD with 6.0% residual ethanol and VOX SSD with 2.1% residual acetone): 0.0%
- total impurities/degradation products ([7]; tablets from VEL SSD with 7.0% and VOX SSD with 3.2% water content): 0.0%
- released at 30 minutes [8]: 91%
SMILES: CC[C@@H]1[C@@H]2CN(C(=O)[C@H](C(C)(C)C)NC(=O)O[C@@H]3C[C@H]3CCCCC(F)(F)c3nc4ccc(OC)cc4nc3O2)[C@@H]1C(=O)N[C@]1(C(=O)NS(=O)(=O)C2(C)CC2)C[C@H]1C(F)F [Voxilaprevir, (1aR,5S,8S,9S,10R,22aR)-5-tert-butyl-N-{(1R,2R)-2-(difluoromethyl)-1-[(1-methylcyclopropanesulfonyl)carbamoyl]cyclopropyl}-9-ethyl-18,18-difluoro-14-methoxy-3,6-dioxo-1,1a,3,4,5,6,9,10,18,19,20,21,22,22a-tetradecahydro-8H-7,10-methanocyclopropa[18,19][1,10,3,6]dioxadiazacyclononadecino[11,12-b]quinoxaline-8-carboxamide]
